What was measured:
[1] = tested on: IL-12-activated peritoneal macrophages; assay: Viability of IL-12-activated peritoneal macrophages (MTT); format: cell-based, mice; conditions: 50 mM AG-490
Procedure: In vitro IL-12 activation and AG-490 treatment of macrophages. Peritoneal macrophages (2×10^5/well) are incubated in medium supplemented with either PBS, or rIL-12 (2 ng/ml), or AG-490 ([…]). Forty-eight hours later, the cultures are renewed by addition of fresh medium with either AG-490 or rIL-12 or PBS. Activation of macrophages is determined by nitric oxide production. Macrophage viability is determined by cleavage of tetrazolium salt in an MTT assay.

splenocytes = assay: IL-12-induced IFN-g production by splenocytes ex vivo; format: in vivo; conditions: mice treated i.p. with AG-490 (0.5 mg) daily 4 days, rIL-12 last two days
Procedure: Mice are treated daily with i.p. injections of […] of AG-490 (0.5 mg) or DMSO vehicle (50%) for a total of 4 days. During the last two days of AG-490 or DMSO treatment, daily i.p. injection of 400 ng of recombinant IL-12 (rIL-12) (Genetics Institute, Cambridge, Mass.) is also given simultaneously with either AG-490 or DMSO. Two days after the last treatment of AG-490, single cell suspensions of splenocytes are prepared from individual mice. The splenocytes are treated with 100 U/ml rIL-2 to induce IFN-g production. IFN-g ELISA (Genzyme, Cambridge, Mass.) is performed as described previously (Tan, et al., 1996, Cancer Res 56:3399).

[2] = tested on: myeloma cells with activated STAT3; assay: In vitro apoptosis assay of murine myeloma cells; format: cell-based
Procedure: In vitro apoptosis assay. After a 24 hours incubation with LIMEM medium containing […] AG-490, cells are stained with Annexin V-PE and 7-Amino-actinomycin D (PharMingen, San Diego, Calif.). Dual-color fluorescence is measured on a FACScan flow cytometer and analyzed using CellQuest software (Becton Dickinson, Mountain View, Calif.).

Q: Which results are given for `N#C/C(=C\c1ccc(O)c(O)c1)C(=O)NCc1ccccc1` [AG490]?
A: cell death of IL-12-activated peritoneal macrophages [1]: no cell death is detected; IL-12-induced IFN-g production by splenocytes (splenocytes): slight suppression; apoptosis of myeloma cells [2]: efficient apoptosis
